Our source for the Ki values is BindingDB's records for doi:10.1021/bi0200514 (Merck Research Laboratories, 2002).

Each structure is given as a SMILES string. Where “and” joins values, the source holds several entries; their conditions need not be identical. Identical values can stand only once. Positions of bridges follow the written chain, without caps; N, C: chain ends. Non-standard residues stand in square brackets, D forms with d. Residues, ends and D or L forms follow the SMILES beside them. *: point of attachment. Pentanoyl(5-guanidino) = NC(N)=NCCCCC(=O)*; Abu = CC[C@H](N)C(=O)O; Aoc = NCCCCCCCC(=O)O; Ava = NCCCCC(=O)O

The target of assay [1] is Melanin-concentrating hormone receptor 2 (Homo sapiens, UniProt Q969V1).
Assay [2] concerns the target Melanin-concentrating hormone receptor 1 (Homo sapiens, UniProt Q99705).

Chain of Melanin-concentrating hormone receptor 1 (Q99705 as listed by the source): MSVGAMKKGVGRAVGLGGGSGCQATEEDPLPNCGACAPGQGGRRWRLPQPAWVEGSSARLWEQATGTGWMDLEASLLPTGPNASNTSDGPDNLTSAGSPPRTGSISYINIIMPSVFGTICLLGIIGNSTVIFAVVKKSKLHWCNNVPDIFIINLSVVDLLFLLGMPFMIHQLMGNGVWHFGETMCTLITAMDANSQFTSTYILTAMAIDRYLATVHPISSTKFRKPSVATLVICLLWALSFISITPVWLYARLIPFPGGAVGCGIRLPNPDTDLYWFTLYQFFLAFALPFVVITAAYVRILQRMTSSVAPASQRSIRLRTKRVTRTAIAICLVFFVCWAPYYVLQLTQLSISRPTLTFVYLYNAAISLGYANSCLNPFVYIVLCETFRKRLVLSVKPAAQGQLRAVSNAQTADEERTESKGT
Chain of Melanin-concentrating hormone receptor 2 (Q969V1 whole entry): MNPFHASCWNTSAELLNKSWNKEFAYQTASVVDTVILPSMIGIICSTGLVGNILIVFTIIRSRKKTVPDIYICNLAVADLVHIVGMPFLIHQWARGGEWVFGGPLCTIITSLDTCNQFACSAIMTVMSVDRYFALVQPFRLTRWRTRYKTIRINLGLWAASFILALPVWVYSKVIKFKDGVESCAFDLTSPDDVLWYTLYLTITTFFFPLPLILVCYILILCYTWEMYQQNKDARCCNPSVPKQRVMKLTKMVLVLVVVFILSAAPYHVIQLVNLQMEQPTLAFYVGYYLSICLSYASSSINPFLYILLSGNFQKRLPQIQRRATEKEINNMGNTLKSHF

The compound `CC(=O)N[C@@H](CCCN=C(N)N)C(=O)N[C@H]1CSSC[C@@H](C(N)=O)NC(=O)CCCCNC(=O)[C@H](Cc2ccc(O)cc2)NC(=O)[C@H](C(C)C)NC(=O)[C@H](CCCN=C(N)N)NC(=O)CNC(=O)[C@H](CC(C)C)NC(=O)[C@H](C)NC1=O` [Ala8,Ava14,15] (Ac-RCALGRVY[Ava]C-NH2; disulfide 2-10) registered a Ki in assay [1] of 38 nM.
Take `CC(=O)N[C@@H](CCCN=C(N)N)C(=O)N[C@H]1CSSC[C@@H](C(N)=O)NC(=O)[C@@H]2CCCN2C(=O)[C@H](CCCN=C(N)N)NC(=O)[C@H](Cc2ccc(O)cc2)NC(=O)[C@H](C(C)C)NC(=O)[C@H](CCCN=C(N)N)NC(=O)CCCCCCCNC1=O` [Aoct8,9,10] (Ac-RC[Aoc]RVYRPC-NH2; disulfide 2-9): the Ki was 63 nM in assay [1] and 4800 nM in assay [2].
The corresponding values for `CSCC[C@@H]1NC(=O)[C@@H](NC(=O)[C@H](CCCN=C(N)N)NC(C)=O)CSSC[C@@H](C(N)=O)NC(=O)CCCCNC(=O)[C@H](Cc2ccc(O)cc2)NC(=O)[C@H](C(C)C)NC(=O)[C@H](CCCN=C(N)N)NC(=O)CNC(=O)[C@H](CC(C)C)NC1=O` [Ava14,15] are 50 nM and 1.8 nM.
For `CSCC[C@@H]1NC(=O)[C@@H](NC(=O)[C@@H](CCCN=C(N)N)NC(C)=O)CSSC[C@@H](C(N)=O)NC(=O)CCCCNC(=O)[C@H](Cc2ccc(O)cc2)NC(=O)[C@H](C(C)C)NC(=O)[C@H](CCCN=C(N)N)NC(=O)CCCCNC1=O` [D-Arg6,Ava9,10,Ava14,15], in that order: 45 nM and 69 nM.
The corresponding values for `CSCC[C@@H]1NC(=O)[C@@H](NC(=O)[C@@H](CCCN=C(N)N)NC(C)=O)CSSC[C@@H](C(N)=O)NC(=O)CCCCNC(=O)[C@H](Cc2ccc(O)cc2)NC(=O)[C@H](C(C)C)NC(=O)[C@H](CCCN=C(N)N)NC(=O)CNC(=O)[C@H](CC(C)C)NC1=O` [D-Arg6,Ava14,15] are 65 nM and 11.3 nM.
For `CSCC[C@@H]1NC(=O)[C@H](NC(=O)[C@H](CCCN=C(N)N)NC(C)=O)CSSC[C@@H](C(N)=O)NC(=O)CCCCNC(=O)[C@H](Cc2ccc(O)cc2)NC(=O)[C@H](C(C)C)NC(=O)[C@H](CCCN=C(N)N)NC(=O)CNC(=O)[C@H](CC(C)C)NC1=O` [D-Cys7,Ava14,15], the Ki was determined as 20 nM in assay [1] and 340 nM in assay [2].
For `CSCC[C@@H]1NC(=O)[C@@H](NC(=O)CCCN=C(N)N)CSSC[C@@H](C(N)=O)NC(=O)CCCCNC(=O)[C@H](Cc2ccc(O)cc2)NC(=O)[C@H](C(C)C)NC(=O)[C@H](CCCN=C(N)N)NC(=O)CNC(=O)[C@H](CC(C)C)NC1=O` [Gbu6,Ava14,15], in that order: 45 nM and 7.9 nM.
With `CSCC[C@@H]1NC(=O)[C@@H](NC(=O)[C@H](CCN=C(N)N)NC(C)=O)CSSC[C@@H](C(N)=O)NC(=O)CCCCNC(=O)[C@H](Cc2ccc(O)cc2)NC(=O)[C@H](C(C)C)NC(=O)[C@H](CCCN=C(N)N)NC(=O)CNC(=O)[C@H](CC(C)C)NC1=O` [Gpr6,Ava14,15], the Ki in assay [1] and in assay [2] was 43 nM each time.
As for `CC(C)C[C@@H]1NC(=O)[C@H](C)NC(=O)[C@@H](NC(=O)CCCCN=C(N)N)CSSC[C@@H](C(N)=O)NC(=O)CCCCNC(=O)[C@H](Cc2ccc(O)cc2)NC(=O)[C@H](C(C)C)NC(=O)[C@H](CCCN=C(N)N)NC(=O)CNC1=O` [Gva6,Ala8,Ava14,15] ({Pentanoyl(5-guanidino)}-CALGRVY[Ava]C-NH2; disulfide 1-9), the Ki is 33 nM in assay [1] and 83 nM in assay [2].
The corresponding values for `CSCC[C@@H]1NC(=O)[C@@H](NC(=O)CCCCN=C(N)N)CSSC[C@@H](C(N)=O)NC(=O)CCCCNC(=O)[C@H](Cc2ccc(O)cc2)NC(=O)[C@H](C)NC(=O)[C@H](CCCN=C(N)N)NC(=O)CNC(=O)[C@H](CC(C)C)NC1=O` [Gva6,Ala12,Ava14,15] ({Pentanoyl(5-guanidino)}-CMLGRAY[Ava]C-NH2; disulfide 1-9) are 35 nM and 25 nM.
`CSCC[C@@H]1NC(=O)[C@@H](NC(=O)CCCCN=C(N)N)CSSC[C@@H](C(N)=O)NC(=O)CCCCNC(=O)[C@H](Cc2ccc(O)cc2)NC(=O)[C@H](C(C)C)NC(=O)[C@H](CCCN=C(N)N)NC(=O)CCCCNC1=O` [Gva6,Ava9,10,Ava14,15] ({Pentanoyl(5-guanidino)}-CM[Ava]RVY[Ava]C-NH2; disulfide 1-8): the Ki in assay [1] is 40 nM; in assay [2] it was 45 nM.
For `CSCC[C@@H]1NC(=O)[C@@H](NC(=O)CCCCN=C(N)N)CSSC[C@@H](C(N)=O)NC(=O)[C@@H]2CCCN2C(=O)[C@H](CCCN=C(N)N)NC(=O)[C@H](Cc2ccc(O)cc2)NC(=O)[C@H](C(C)C)NC(=O)[C@H](CCCN=C(N)N)NC(=O)CCCCNC1=O` [Gva6,Ava9,10], in that order: 48 nM and 5 nM.
The corresponding values for `CSCC[C@@H]1NC(=O)[C@@H](NC(=O)CCCCN=C(N)N)CSSC[C@@H](C(=O)O)NC(=O)CCCCNC(=O)[C@H](Cc2ccc(O)cc2)NC(=O)[C@H](C(C)C)NC(=O)[C@H](CCCN=C(N)N)NC(=O)CNC(=O)[C@H](CC(C)C)NC1=O` [Gva6,Ava14,15, OH] are 38 nM and 66 nM.
For `CSCC[C@@H]1NC(=O)[C@H](NC(=O)CCCCN=C(N)N)CSSC[C@@H](C(N)=O)NC(=O)CCCCNC(=O)[C@H](Cc2ccc(O)cc2)NC(=O)[C@H](C(C)C)NC(=O)[C@H](CCCN=C(N)N)NC(=O)CNC(=O)[C@H](CC(C)C)NC1=O` [Gva6,D-Cys7,Ava14,15], in that order: 25 nM and 120 nM.
Consider `CCCC[C@@H]1NC(=O)[C@@H](NC(=O)CCCCN=C(N)N)CSSC[C@@H](C(N)=O)NC(=O)CCCCNC(=O)[C@H](Cc2ccc(O)cc2)NC(=O)[C@H](C(C)C)NC(=O)[C@H](CCCN=C(N)N)NC(=O)CNC(=O)[C@H](CC(C)C)NC1=O` [Gva6,Nle8,Ava14,15], for which the figures for the Ki in assay [1] and in assay [2] were 70 nM and 4.7 nM, respectively.
For `CC[C@@H]1NC(=O)[C@@H](NC(=O)CCCCN=C(N)N)CSSC[C@@H](C(N)=O)NC(=O)CCCCNC(=O)[C@H](Cc2ccc(O)cc2)NC(=O)[C@H](C(C)C)NC(=O)[C@H](CCCN=C(N)N)NC(=O)CNC(=O)[C@H](CC(C)C)NC1=O` [Gva6,alphaAbu8,Ava14,15] ({Pentanoyl(5-guanidino)}-C[Abu]LGRVY[Ava]C-NH2; disulfide 1-9), in that order: 43 nM and 320 nM.
For `CSCC[C@@H]1NC(=O)[C@@H](NC(=O)CCCCN=C(N)N)CSSC[C@@H](C(N)=O)NC(=O)[C@H]2CC[C@H](CC2)NC(=O)[C@H](Cc2ccc(O)cc2)NC(=O)[C@H](C(C)C)NC(=O)[C@H](CCCN=C(N)N)NC(=O)CNC(=O)[C@H](CC(C)C)NC1=O` [Gva6,cisAcx14,15], in that order: 3100 nM and 10 nM.
The corresponding values for `CSCC[C@@H]1NC(=O)[C@@H](NC(=O)CCCCN=C(N)N)CSSC[C@@H](C(N)=O)NC(=O)CCCCNC(=O)[C@H](Cc2ccc(O)cc2)NC(=O)[C@H](C(C)C)NC(=O)[C@H](CCCN=C(N)N)NC(=O)CNC1=O` [Gva6,desLeu9,Ava14,15] ({Pentanoyl(5-guanidino)}-CMGRVY[Ava]C-NH2; disulfide 1-8) are 20 nM and 1350 nM.
For `CSCC[C@@H]1NC(=O)[C@@H](NC(=O)CCCCN=C(N)N)CSSC[C@@H](C(N)=O)NC(=O)CCCNC(=O)[C@H](Cc2ccc(O)cc2)NC(=O)[C@H](C(C)C)NC(=O)[C@H](CCCN=C(N)N)NC(=O)CNC(=O)[C@H](CC(C)C)NC1=O` [Gva6,gammaAbu14,15], the Ki came to 48 nM in assay [1] and 24 nM in assay [2].
For `CSCC[C@@H]1NC(=O)[C@@H](N)CSSC[C@@H](C(N)=O)NC(=O)CCCCNC(=O)[C@H](Cc2ccc(O)cc2)NC(=O)[C@H](C(C)C)NC(=O)[C@H](CCCN=C(N)N)NC(=O)CNC(=O)[C@H](CC(C)C)NC1=O` [des(Ac-Arg6),Ava14,15], the Ki in assay [1] was 77 nM and 48 nM; in assay [2], 300 nM and 190 nM.
Regarding `CSCC[C@@H]1NC(=O)[C@@H](NC(=O)[C@H](CCCNC(=N)N)NC(C)=O)CSSC[C@@H](C(N)=O)NC(=O)[C@@H]2CCCN2C(=O)[C@H](CCCNC(=N)N)NC(=O)[C@H](Cc2ccc(O)cc2)NC(=O)[C@H](C(C)C)NC(=O)[C@H](CCCNC(=N)N)NC(=O)CNC(=O)[C@H](CC(C)C)NC1=O` [hAc-MCH(6-16)-NH2], the Ki in assay [1] was determined as 2.7 nM; in assay [2] it was 0.16 nM.
With `CSCC[C@@H]1NC(=O)[C@@H](NC(=O)[C@H](CCCNC(=N)N)NC(=O)[C@H](CC(C)C)NC(=O)[C@H](CCSC)NC(=O)[C@H](CC(=O)O)NC(=O)[C@H](Cc2ccccc2)NC(=O)[C@@H](N)CC(=O)O)CSSC[C@@H](C(=O)N[C@@H](Cc2c[nH]c3ccccc23)C(=O)N[C@@H](CCC(N)=O)C(=O)N[C@H](C(=O)O)C(C)C)NC(=O)[C@@H]2CCCN2C(=O)[C@H](CCCNC(=N)N)NC(=O)[C@H](Cc2ccc(O)cc2)NC(=O)[C@H](C(C)C)NC(=O)[C@H](CCCNC(=N)N)NC(=O)CNC(=O)[C@H](CC(C)C)NC1=O` [hMCH], in assay [1], the Ki came out at 2.9 nM.

The Ki is a dissociation constant, usually derived from enzyme kinetics or from competition with a known ligand. A high value points to lower affinity.
